Laboratory results taken from patent US20150057316A1, “NOVEL SULFONATE-BASED TRIMEBUTINE SALTS” (GICARE PHARMA INC., priority 2012, published 2015).
Where a name gives a salt, the structure may show the parent alone. Read-outs that look alike come from different tables or passages of the source.

Tests used:
Caco-2 cells = assay: Caco-2 bidirectional permeability; format: in vitro ADME, human; conditions: for Efflux ratio: (Papp B − A)/(Papp A − B); for % Recovery A − B / Papp A − B: apical to basolateral; for % Recovery A − B / Papp A − B / % Recovery B − A / Papp B − A: 2-hr; for % Recovery B − A / Papp B − A: basolateral to apical; for Permeability: class from Papp A-B; for Significant Efflux: significant: efflux ratio above 3.0 and Papp B-A >1.0×10^−6 cm/s
Source text: (§1) Such a procedure helps understanding the suitability of the compound for oral dosing by measuring the rate of transport of the molecule across the Caco-2 cells, which have characteristics that resemble intestinal epithelial cells. Transport in both directions (apical to basolateral (A-B) and basolateral to apical (B-A)) across the cell monolayer was monitored over a 2-hr time period in order to evaluate the efflux ratio, an indicator of whether the compound undergoes significant active efflux or not. The permeability coefficient (Papp) is calculated from the equation: […]
(§2) Where dQ/dt is the rate of permeation of the drug across the cells, Co is the donor compartment concentration at time zero and A is the area of the cell monolayer. Co is obtained from analysis of the dosing solution at the start of the experiment. The analysis method used was LCMS quantification.
(§3) A permeability of (Papp A-B)<1.0×10^−6 cm/s is considered low, whereas a permeability of (Papp A-B)>1.0×10^−6 cm/s is considered high. A significant efflux is generally associated with an efflux ratio above 3.0 and a (Papp B-A)>1.0×10^−6 cm/s in these assay conditions.

rat hepatocytes = assay: in-vitro metabolism over rat hepatocytes; conditions: 10 μM, up to 120 min at 37° C.
Experimental: (§4) Human, dog and rat cryopreserved hepatocytes (Celsis-IVT; n=10 pooled donors) were thawed according to the recommended protocol of the cell provider. Cells were then diluted to 1 million viable cells per mL, plated in a 96-well plate (100 μL per well), and pre-incubated 20 min at 37° C. under 95:5 O2:CO2 atmosphere. Following addition of test compounds (10 μM; 1 μL of 1 mM stock solution (95:5 acetonitrile/DMSO) per well), cells were incubated with lid on up to 120 min at 37° C. under 95:5 O2:CO2 atmosphere. At time points 0, 15, 60 and 120 min, 100 μL of acetonitrile containing an internal standard (1 μM labetalol) was added to quench incubates, and the plate was centrifuged (5 min; 15K rpm). Supernatant was diluted 1:2 with water and analyzed by HPLC-MS/MS (ESI-). The MS2 scan mode was used instead of the MRM mode, in order to manually extract the Extracted Ion Current (EIC) of two potential metabolites: 3-cyanobenzenesulfonate and sodium 3-sulfobenzoate.

human hepatocytes = assay: in-vitro metabolism over human hepatocytes; conditions: 10 μM, up to 120 min at 37° C.
Experimental: as §4

dog hepatocytes = assay: in-vitro metabolism over dog hepatocytes; conditions: 10 μM, up to 120 min at 37° C.
Experimental: as §4

[1] = quantification of counter-ion and metabolites in urine and feces of rats; format: in vivo; conditions: 500 mg/kg p.o., 48 hr collection
Experimental: A preliminary toxicological evaluation of the compound was done in 250-300 g male Sprague-Dawley rats. Animals were randomized into one of three dosing group, i.e. 250, 500 or 1,000 mg/kg administered by oral gavage. Following administration of the test article, animals were observed hourly for the first 8 hr post-dosing for clinical signs and twice daily thereafter until termination on Day 7. Three animals per group were sacrificed by exsanguination under general anesthesia at 24-hr post dosing or on Day 7 and a gross necropsy was performed in all animals. Additionally, all three rats having received the 500 mg/kg dose and scheduled for sacrifice on Day 7 were placed in individual metabolic cages immediately following test article administration, in order to collect feces and urine during 48 hr. Blood samples were collected terminally from each rat for hematology and serum chemistry evaluation.
After proper urine and feces samples preparation, trimebutine 3-thiocarbamoyl-benzenesulfonate and its two metabolites were assayed by HPLC-MS/MS (ESI-), in MRM mode. Calibration curves were prepared for each analyte, in both matrices (diluted blank urine and diluted blank feces).

[2] = solid-state stability of trimebutine salts of carboxylic acids; conditions: 1:1 molar ratio; salts dissociate with heat and/or time
[3] = cited from earlier work
[4] = Caco-2 bidirectional permeability; format: in vitro ADME, human; conditions: human; for efflux ratio at 2 h: (Papp B − A)/(Papp A − B)
Source text: as §1, §2, §3

Sprague-Dawley rats = assay: p.o. pharmacokinetic study in rats, toxicological assessment; format: in vivo; conditions: single dose of 230 and 460 mg/kg p.o.
Experimental: In order to evaluate the absolute bioavailability of trimebutine 4-toluenesulfonate (Example 22), an in-vivo pharmacological study was carried out in 6 Sprague-Dawley rats, which were administered a single dose of 230 and 460 mg/kg of the compound by the oral gavage route (p.o.). During this study, assessments included mortality checks and clinical observations. Blood samples were also collected for pharmacokinetic evaluations at 10 time points.

mu-opioid receptors = conditions: cited from earlier work
kappa-opioid receptors = kappa-opioid receptors (Cavia porcellus, UniProt P41144); conditions: cited from earlier work
[5] = 100 μM, 37° C.; simulated gastric fluid pH 1.2 up to 60 min, simulated intestinal fluid pH 6.8 and acetate buffer pH 5 up to 180 min
Experimental: Pyridinium 3-thiocarbamoyl-benzenesulfonate and pyridinium 4-thiocarbamoyl-benzenesulfonate (100 μM) were separately incubated at 37° C. in simulated gastric fluid (pH 1.2; without pepsin) up to 60 min, in simulated intestinal fluid (pH 6.8, without procreatin) up to 180 min, and in acetate buffer (pH 5) up to 180 min. At time points of 0, 30, 60, 120 and 180 min, an aliquot of 10 μL of samples were removed and added into vials containing […] internal standard (labetalol) in a mixture of 25:75 acetonitrile:water. Samples were analyzed by HPLC-MS/MS (ESI-, MRM) to monitor disappearance of its counter-ion over the time.

[6] = Caco-2, apical to basolateral, 2-hr, read-out: % Recovery A − B
[7] = Caco-2, apical to basolateral, 2-hr, read-out: Papp A − B
[8] = Caco-2, class from Papp A-B, read-out: Permeability
[9] = Caco-2, basolateral to apical, 2-hr
[10] = Caco-2, basolateral to apical, 2-hr, read-out: % Recovery B − A

Chain of kappa-opioid receptors (P41144 whole entry): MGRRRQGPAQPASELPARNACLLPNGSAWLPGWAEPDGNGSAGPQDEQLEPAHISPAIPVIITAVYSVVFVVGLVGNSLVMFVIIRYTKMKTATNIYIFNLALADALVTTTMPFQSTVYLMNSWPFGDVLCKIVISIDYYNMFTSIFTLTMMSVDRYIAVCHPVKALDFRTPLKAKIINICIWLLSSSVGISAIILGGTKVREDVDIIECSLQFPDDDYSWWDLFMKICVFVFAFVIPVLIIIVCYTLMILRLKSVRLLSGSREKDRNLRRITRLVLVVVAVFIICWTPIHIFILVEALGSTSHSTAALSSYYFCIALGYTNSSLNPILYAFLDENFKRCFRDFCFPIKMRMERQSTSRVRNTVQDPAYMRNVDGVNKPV

For NC(=S)c1cccc(S(=O)(=O)O)c1, the Efflux ratio (Caco-2 cells) was 1.2, the “% Recovery A − B” value (Caco-2 cells) was 63% and the “Papp A − B” value (Caco-2 cells) was 0.28 ×10⁻⁶ cm/s. The “% Recovery B − A” value (Caco-2 cells) was 82%, the “Papp B − A” value (Caco-2 cells) was 0.33 ×10⁻⁶ cm/s and the Permeability (Caco-2 cells) was “Low (A permeability of (Papp A-B)<1.0×10^−6 cm/s is considered low)”. The “Significant Efflux” value (Caco-2 cells) was “No”, the metabolic stability (rat hepatocytes) was “remained intact” and the metabolic stability (human hepatocytes) was “remained intact”. For the same molecule, the metabolic stability (dog hepatocytes) was “remained intact”, the “3-cyanobenzenesulfonate found in feces, share of administered dose” value [1] was “about 4%” and the “3-sulfobenzoate found, share of administered dose” value [1] was 0.3%. For the same molecule, the “share of total counter-ion administered orally found in feces” value [1] was “About 80%” and the “share of total counter-ion administered orally found in urine” value [1] was ~20%.
For CCC(COC(=O)c1cc(OC)c(OC)c(OC)c1)(c1ccccc1)N(C)C (centres unmarked), the Efflux ratio (Caco-2 cells) was 1.0, the “% Recovery A − B” value (Caco-2 cells) was 51% and the “Papp A − B” value (Caco-2 cells) was 23.2 ×10⁻⁶ cm/s. The “% Recovery B − A” value (Caco-2 cells) was 62%, the “Papp B − A” value (Caco-2 cells) was 24.3 ×10⁻⁶ cm/s and the Permeability (Caco-2 cells) was “High (a permeability of (Papp A-B)>1.0×10^−6 cm/s is considered high)”.
NC(=O)c1cccc(S(=O)(=O)O)c1 (as salt: potassium) gave a melting point of 223 °C.
For NC(=S)c1ccc(C(=O)O)cc1 [4-thiocarbamoylbenzoic acid], the “stability of the trimebutine salt in the solid state” value [2] is given as “unstable salt” and the pKa [3] is given as ~3.3.
O=S(=O)(O)c1ccccn1 [Example 7, 2-Pyridinesulfonic acid] showed a melting point of 131 °C.
For O=S(=O)(O)c1cccnc1 [Example 8, 3-Pyridinesulfonic acid], the melting point was 119 °C.
In the case of N#Cc1cccc(S(=O)(=O)O)c1 [Example 14, 3-Cyano benzenesulfonic acid], the melting point is reported as 129 °C.
With CCC(COC(=O)c1cc(OC)c(OC)c(OC)c1)(c1ccccc1)N(C)C (centres unmarked) [Example 22, trimebutine 4-toluenesulfonate salt] the recovery at 2 h [4, 6] was 58%, the Papp A→B at 2 h [4, 7] was 23.9 ×10⁻⁶ cm/s and the Papp A→B at 2 h [4, 8] was > 1 ×10⁻⁶ cm/s. It also gave an efflux ratio at 2 h ([4]; Caco-2) of 0.9, a Papp B→A at 2 h [4, 9] of 21.7 ×10⁻⁶ cm/s and a recovery at 2 h [4, 10] of 76%. The Permeability (Caco-2 cells) was “high”, the “Significant Efflux” value (Caco-2 cells) was “No” and the bodyweight (Sprague-Dawley rats) was “no change in bodyweight”. The death (Sprague-Dawley rats) was “no death reported” and the toxicity (Sprague-Dawley rats) was “no indication of any toxicity”.
For O=C([O-])c1cccc(S(=O)(=O)O)c1.[Na+] [Sodium 3-sulfobenzoate, reference compound], the recovery at 2 h [4, 6] was 93%, the Papp A→B at 2 h [4, 7] was 0.59 ×10⁻⁶ cm/s and the Papp A→B at 2 h [4, 8] was < 1 ×10⁻⁶ cm/s. It also gave an efflux ratio at 2 h ([4]; Caco-2) of 1, a Papp B→A at 2 h [4, 9] of 0.59 ×10⁻⁶ cm/s and a recovery at 2 h [4, 10] of 115%. For the same molecule, the “Significant Efflux” value (Caco-2 cells) was “No”.
For CCC(COC(=O)c1cc(OC)c(OC)c(OC)c1)(c1ccccc1)N(C)C (centres unmarked) [Trimebutine, 3,4,5-trimethoxybenzoic acid 2-(dimethylamino)-2-phenylbutylester], the “affinity to mu-opioid receptors” value (mu-opioid receptors) is listed as “micromolar”, the “affinity to kappa-opioid receptors” value (kappa-opioid receptors) is listed as “micromolar” and the metabolic stability (rat hepatocytes) is listed as “capable of metabolizing trimebutine”. The pKa [3] was ~6.25, the metabolic stability (human hepatocytes) was “capable of metabolizing trimebutine” and the metabolic stability (dog hepatocytes) was “capable of metabolizing trimebutine”.
In the case of O=C(O)c1ccccc1 [benzoic acid], the “stability of the trimebutine salt in the solid state” value [2] is reported as “unstable salt”.
For “pyridinium 3-cyanobenzenesulfonate [Pyridinium 3-cyano-benzenesulfonate]”, the Efflux ratio (Caco-2 cells) was 2.0, the “% Recovery A − B” value (Caco-2 cells) was 84% and the “Papp A − B” value (Caco-2 cells) was 0.44 ×10⁻⁶ cm/s. The “% Recovery B − A” value (Caco-2 cells) was 72%, the “Papp B − A” value (Caco-2 cells) was 0.87 ×10⁻⁶ cm/s and the Permeability (Caco-2 cells) was “Low (A permeability of (Papp A-B)<1.0×10^−6 cm/s is considered low)”. For the same molecule, the “Significant Efflux” value (Caco-2 cells) was “No”.
With “pyridinium 4-thiocarbamoylbenzenesulfonate” the “% Recovery A − B” value (Caco-2 cells) was 106%, the “Papp A − B” value (Caco-2 cells) was <0.54 ×10⁻⁶ cm/s and the “% Recovery B − A” value (Caco-2 cells) was 116%. The “Papp B − A” value (Caco-2 cells) was <0.68 ×10⁻⁶ cm/s, the Permeability (Caco-2 cells) was “Low (A permeability of (Papp A-B)<1.0×10^−6 cm/s is considered low)” and the “Significant Efflux” value (Caco-2 cells) was “No”. The “stability of counter-ion (disappearance over time)” value [5] was “stable in all these media”.
